From patent US11453674B2, “Heterocyclic compound, preparation method and use thereof in medicine” (SUZHOU SINOVENT PHARMACEUTICALS CO., LTD., priority 2019, dated 2022)

Molecular target: T1, OAT3 (Homo sapiens, UniProt Q8TCC7)
T1 construct: host or cells: HEK293/OAT3 (hygromycin B selection)
T1 sequence (Q8TCC7 1-542): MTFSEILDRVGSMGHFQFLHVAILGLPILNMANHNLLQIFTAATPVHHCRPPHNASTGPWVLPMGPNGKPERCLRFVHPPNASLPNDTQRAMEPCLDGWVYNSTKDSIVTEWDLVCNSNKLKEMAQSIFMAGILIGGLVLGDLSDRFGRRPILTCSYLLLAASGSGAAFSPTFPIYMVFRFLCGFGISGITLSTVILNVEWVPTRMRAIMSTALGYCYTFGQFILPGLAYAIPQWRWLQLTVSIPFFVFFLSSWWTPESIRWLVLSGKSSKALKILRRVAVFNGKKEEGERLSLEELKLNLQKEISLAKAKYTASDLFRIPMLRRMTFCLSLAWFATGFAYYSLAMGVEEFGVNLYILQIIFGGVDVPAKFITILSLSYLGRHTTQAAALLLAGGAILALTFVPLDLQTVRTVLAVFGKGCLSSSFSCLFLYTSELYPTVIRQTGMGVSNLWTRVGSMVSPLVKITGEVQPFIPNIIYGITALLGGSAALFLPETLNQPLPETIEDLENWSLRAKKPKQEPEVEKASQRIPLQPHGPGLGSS
Assay: Inhibition of 6-carboxyfluorescein uptake in HEK293/OAT3 cells
Format: cell-based
Settings: ratio of OAT3 IC50 to hURAT1 IC50 (selectivity)
Protocol: 1. Reagents and Consumables
2. Culture Media and Solutions
Thaw medium: 90% DMEM+10% FBS+1× Pen/Strep, preserved at 4° C. for later use.
Culture medium: 90% DMEM+10% FBS+1× Pen/Strep+100 μg/mL Hygromycin B, preserved at 4° C. for later use.
5× Matrigel: 1 vial of Matrigel was thawed overnight at 4° C., then diluted to 500 mL with cold DMEM. The resulting solution was preserved at 4° C. for later use after subpackaging.
Uptake assay buffer: 487.5 mL HBSS buffer was mixed with 12.5 mL 1M HEPES, with the final HEPES concentration being 25 mM. This was prepared right before the experiment.
30 mM probenecid: 2 mg of the powder was dissolved in 233.62 μL of 100% DMSO. The resulting solution was preserved at −20° C. for later use after subpackaging.
The resulting solution was preserved at −20° C. for later use after subpackaging.
The resulting solution was preserved away from light at 4° C. for later use after subpackaging.
Envision multimode plate reader (with parameters as follows)
Emission wavelength: 590 nm
4. Experimental Procedures
The cells were quickly taken out from a liquid nitrogen tank and shaken in a water bath at 37° C. until completely thawed. The cell suspension was quickly added to a pre-heated culture medium and centrifuged at 1000 rpm for 5 min. The supernatant was discarded. A fresh pre-heated culture medium was added for resuspension. The cell suspension was transferred into a 100 mm dish and incubated at 37° C. at 5% CO2.
Typically, the cells were passaged every 2-3 days in a ratio of 1:3 to 1:5.
5× Matrigel was added to a 384-well cell plate at 5 μL/well for incubation in an incubator at 37° C. for 30 min, followed by digestion.
Cells were collected after digestion, counted, resuspended at 1×10^6 cells/mL using a culture medium, and added to a coated plate at 60 μL/well by using a Multidrop Combi to give a cell density of 6×10^4 cells/well, followed by incubating overnight at 37° C. at 5% CO2.
3) Preparation of Uptake Assay Buffer
On the day of experiment, fresh buffer was prepared as needed.
4) Preparation of Compounds (Using ECHO)
Working solutions of 11 concentrations were prepared for plotting a curve with stock solutions of 3 concentrations using PlateMap. The 3 concentrations were 30 mM, 0.3 mM, 0.003 mM, all formulated in DMSO.
5) Preparation of a Mixed Solution of 6-Carboxyfluorescein (6 μM) and Compounds
According to amount used, 6-carboxyfluorescein (1 mM) was diluted with uptake assay buffer to give a diluted 6-carboxyfluorescein solution (6 μM). […] The mixture was preserved away from light for later use. The concentration of DMSO was 2% at this time.
The cells were incubated overnight before the culture medium was carefully removed. Then 80 μL of uptake assay buffer was added to each well at room temperature for washing the cells 3 times. After washing, 20 μL of uptake assay buffer was added to each well.
The mixed solution of 6-CF (6 μM) and compounds, prepared in step 5, was transferred to a cell plate at 20 μL/well with Bravo. The mixed solution was centrifuged at 400 rpm for 1 min, and incubated away from light at room temperature for 10 min. At this time, the concentration of 6-CF became 3 μM, the concentration of the compound became the final concentration, and the concentration of DMSO became 1%.
The cells were washed 3 times with pre-cooled uptake assay buffer at 80 μL/well, to remove unbound 6-CF.
The plate was read on the Envision. The data were recorded and processed to calculate IC50.
According to the fluorescence signals of HPE and ZPE on each cell plate, the inhibition rate (%) of the compound in each well on the cell plate was calculated.
The XLfit software was used to plot the curve for calculating the IC50 values of the compounds. The IC50 value of the positive compound was also one of the criteria for controlling the quality of each experiment.

| Structure (SMILES) | IC50, OAT3/IC50, hURAT1 |
| --- | --- |
| CCc1nc2ncc(F)cn2c1C(=O)c1cc(Br)c(O)c(Br)c1 [Example 4, (3,5-dibromo-4-hydroxyphenyl)(2-ethyl-6-fluoroimidazo[1,2-a]pyrimidin-3-yl)methanone] | 36.5 |
| CCn1nc2ccc(F)cc2c1C(=O)c1cc(Br)c(O)c(Br)c1 [Example 9, (3,5-dibromo-4-hydroxyphenyl)(2-ethyl-5-fluoro-2H-indazol-3-yl) methanone] | 2.0 |
| CCc1nc2ncc(F)cn2c1C(=O)c1cc(Br)c(O)c(C#N)c1 [Example 14, 3-bromo-5-(2-ethyl-6-fluoroimidazo[1,2-a]pyrimidine-3-carbonyl)-2-hydroxybenzonitrile] | 3.6 |
| CCn1nc2ccncc2c1C(=O)c1cc(Br)c(O)c(Br)c1 [Example 16, (3,5-dibromo-4-hydroxyphenyl)(2-ethyl-2H-pyrazolo[4,3-c]pyridin-3-yl)methanone] | 3.1 |
| CCc1nc2ncc(F)cn2c1C(=O)c1cc(Br)c(O)c(C(F)(F)F)c1 [Example 18, (3-bromo-4-hydroxy-5-(trifluoromethyl)phenyl)(2-ethyl-6-fluoroimidazo[1,2-a]pyrimidin-3-yl)methanone] | 16.2 |
| CCc1nc2ncccn2c1C(=O)c1cc(Br)c(O)c(C#N)c1 [Example 22, 3-bromo-5-(2-ethylimidazo[1,2-a]pyrimidine-3-carbonyl)-2-hydroxybenzonitrile] | 1.4 |

Results, then the molecule that gave them:

| IC50, OAT3/IC50, hURAT1 | Structure (SMILES) |
| --- | --- |
| 8.9 | CCc1nc2ncc(Br)cn2c1C(=O)c1cc(Br)c(O)c(Br)c1 [Example 3, (6-bromo-2-ethylimidazo[1,2-a]pyrimidin-3-yl)(3,5-dibromo-4-hydroxyphenyl)methanone] |
| 21.1 | CCc1nc2ncc(C(F)(F)F)cn2c1C(=O)c1cc(Br)c(O)c(Br)c1 [Example 5, (3,5-dibromo-4-hydroxyphenyl)(2-ethyl-6-(trifluoromethyl)imidazo[1,2-a]pyrimidin-3-yl)methanone] |
| 24.8 | CCc1nc2ncc(Cl)cn2c1C(=O)c1cc(Br)c(O)c(Br)c1 [Example 6, (6-chloro-2-ethylimidazo[1,2-a]pyrimidin-3-yl)(3,5-dibromo-4-hydroxyphenyl)methanone] |
| 3.0 | CCc1nc2cc(C(F)(F)F)ncn2c1C(=O)c1cc(Br)c(O)c(Br)c1 [Example 7, (3,5-dibromo-4-hydroxyphenyl)(2-ethyl-7-(trifluoromethyl)imidazo[1,2-c]pyrimidin-3-yl)methanone] |
| 8.7 | CCc1nc2ncccn2c1C(=O)c1cc(Br)c(O)c(Br)c1 [Example 20, 2,6-dibromo-4-([2-ethylimidazo[1,2-a]pyrimidin-3-yl]carbonyl) phenol] |
| 5.5 | CCc1nc2cc(Cl)ncn2c1C(=O)c1cc(Br)c(O)c(Br)c1 [Example 21, (7-chloro-2-ethylimidazo[1,2-f]pyrimidin-3-yl)(3,5-dibromo-4-hydroxyphenyl)methanone] |
| 10.3 | CCc1nc2ncccn2c1C(=O)c1cc(Br)c(O)c(C(F)(F)F)c1 [Example 23, (3-bromo-4-hydroxy-5-(trifluoromethyl)phenyl)(2-ethylimidazo[1,2-a]pyrimidin-3-yl)methanone] |
